How the values were obtained:
[1] = target: NaV1.1 (Homo sapiens, UniProt P35498); details: NaV1.1-expressing HEK cells; cited from earlier work
[2] = target: NaV1.5 (Homo sapiens, UniProt Q14524); details: relative to NaV1.1 activation; cited from earlier work
[3] = target: NaV1.2 (Homo sapiens, UniProt Q99250); details: relative to NaV1.1 activation; cited from earlier work
[4] = target: sodium channel isoforms of interest stably expressed in Human Embryonic Kidney Cells (voltage-gated sodium channel, particularly NaV1.1) (Homo sapiens, UniProt P35498); assay: automated planar patch clamp assay of sodium channel gating (area under the sodium current trace); format: cell-based; details: HEK cells, voltage step from −120 mV to 0 mV, increasing concentrations
Summary of the method: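 Sodium channel isoforms stably expressed in HEK cells, recorded by automated planar patch clamp with depolarizing steps from −120 mV to 0 mV at increasing compound concentrations. Area under the current trace quantifies gating effect; peak current, inactivation time constant and steady-state inactivation also measured; potency from concentration responses.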

Chain of NaV1.5 (Q14524 whole entry): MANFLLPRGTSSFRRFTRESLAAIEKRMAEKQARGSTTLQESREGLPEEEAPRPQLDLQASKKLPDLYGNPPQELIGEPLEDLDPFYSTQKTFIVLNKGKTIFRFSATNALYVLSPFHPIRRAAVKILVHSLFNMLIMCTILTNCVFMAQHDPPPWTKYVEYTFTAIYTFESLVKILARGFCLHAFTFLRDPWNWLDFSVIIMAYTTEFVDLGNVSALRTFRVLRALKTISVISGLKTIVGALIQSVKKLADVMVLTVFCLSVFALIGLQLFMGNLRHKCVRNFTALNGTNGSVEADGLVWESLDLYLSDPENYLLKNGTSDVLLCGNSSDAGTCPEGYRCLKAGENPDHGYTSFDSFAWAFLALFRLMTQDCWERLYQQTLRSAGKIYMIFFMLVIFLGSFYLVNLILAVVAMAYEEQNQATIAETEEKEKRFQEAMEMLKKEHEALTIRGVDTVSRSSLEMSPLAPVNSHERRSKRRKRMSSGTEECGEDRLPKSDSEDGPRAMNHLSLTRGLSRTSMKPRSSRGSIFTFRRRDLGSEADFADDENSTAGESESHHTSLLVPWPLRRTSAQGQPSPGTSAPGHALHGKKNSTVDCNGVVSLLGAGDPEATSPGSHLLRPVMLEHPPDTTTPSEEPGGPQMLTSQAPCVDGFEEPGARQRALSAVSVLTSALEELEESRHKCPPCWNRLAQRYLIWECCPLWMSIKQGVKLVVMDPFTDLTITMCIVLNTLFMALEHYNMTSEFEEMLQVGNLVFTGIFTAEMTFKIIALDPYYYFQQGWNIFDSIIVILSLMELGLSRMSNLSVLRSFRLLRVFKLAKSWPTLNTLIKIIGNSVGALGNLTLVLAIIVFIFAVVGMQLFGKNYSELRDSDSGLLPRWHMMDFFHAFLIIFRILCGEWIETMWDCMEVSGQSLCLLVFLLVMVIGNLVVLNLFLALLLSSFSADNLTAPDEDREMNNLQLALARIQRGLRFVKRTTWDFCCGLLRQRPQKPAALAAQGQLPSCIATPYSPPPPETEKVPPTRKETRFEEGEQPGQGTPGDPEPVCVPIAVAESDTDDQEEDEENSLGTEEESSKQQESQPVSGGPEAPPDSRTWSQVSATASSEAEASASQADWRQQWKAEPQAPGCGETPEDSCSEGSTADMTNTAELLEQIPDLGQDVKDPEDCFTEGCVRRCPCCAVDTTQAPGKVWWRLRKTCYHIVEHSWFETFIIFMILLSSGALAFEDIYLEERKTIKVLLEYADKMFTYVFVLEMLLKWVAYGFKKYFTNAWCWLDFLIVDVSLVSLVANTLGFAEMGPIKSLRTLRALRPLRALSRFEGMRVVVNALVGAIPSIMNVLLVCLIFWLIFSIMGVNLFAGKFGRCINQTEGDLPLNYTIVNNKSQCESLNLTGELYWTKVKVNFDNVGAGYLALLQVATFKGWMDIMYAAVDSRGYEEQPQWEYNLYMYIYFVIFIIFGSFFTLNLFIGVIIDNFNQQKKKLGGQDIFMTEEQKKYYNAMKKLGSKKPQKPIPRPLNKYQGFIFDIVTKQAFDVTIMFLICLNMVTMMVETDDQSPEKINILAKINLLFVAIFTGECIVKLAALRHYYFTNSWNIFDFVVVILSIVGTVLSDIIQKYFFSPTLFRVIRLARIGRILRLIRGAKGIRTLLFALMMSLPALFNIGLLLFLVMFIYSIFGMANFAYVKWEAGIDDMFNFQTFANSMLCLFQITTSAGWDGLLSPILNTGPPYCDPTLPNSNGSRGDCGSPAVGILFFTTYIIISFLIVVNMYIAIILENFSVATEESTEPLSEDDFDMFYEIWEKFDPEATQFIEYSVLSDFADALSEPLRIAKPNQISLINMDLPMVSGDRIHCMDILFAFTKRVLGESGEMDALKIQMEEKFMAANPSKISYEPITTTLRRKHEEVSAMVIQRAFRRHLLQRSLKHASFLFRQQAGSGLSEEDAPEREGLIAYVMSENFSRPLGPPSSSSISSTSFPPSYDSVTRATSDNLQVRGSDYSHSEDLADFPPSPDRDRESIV
Chain of NaV1.2 (Q99250 whole entry, canonical isoform): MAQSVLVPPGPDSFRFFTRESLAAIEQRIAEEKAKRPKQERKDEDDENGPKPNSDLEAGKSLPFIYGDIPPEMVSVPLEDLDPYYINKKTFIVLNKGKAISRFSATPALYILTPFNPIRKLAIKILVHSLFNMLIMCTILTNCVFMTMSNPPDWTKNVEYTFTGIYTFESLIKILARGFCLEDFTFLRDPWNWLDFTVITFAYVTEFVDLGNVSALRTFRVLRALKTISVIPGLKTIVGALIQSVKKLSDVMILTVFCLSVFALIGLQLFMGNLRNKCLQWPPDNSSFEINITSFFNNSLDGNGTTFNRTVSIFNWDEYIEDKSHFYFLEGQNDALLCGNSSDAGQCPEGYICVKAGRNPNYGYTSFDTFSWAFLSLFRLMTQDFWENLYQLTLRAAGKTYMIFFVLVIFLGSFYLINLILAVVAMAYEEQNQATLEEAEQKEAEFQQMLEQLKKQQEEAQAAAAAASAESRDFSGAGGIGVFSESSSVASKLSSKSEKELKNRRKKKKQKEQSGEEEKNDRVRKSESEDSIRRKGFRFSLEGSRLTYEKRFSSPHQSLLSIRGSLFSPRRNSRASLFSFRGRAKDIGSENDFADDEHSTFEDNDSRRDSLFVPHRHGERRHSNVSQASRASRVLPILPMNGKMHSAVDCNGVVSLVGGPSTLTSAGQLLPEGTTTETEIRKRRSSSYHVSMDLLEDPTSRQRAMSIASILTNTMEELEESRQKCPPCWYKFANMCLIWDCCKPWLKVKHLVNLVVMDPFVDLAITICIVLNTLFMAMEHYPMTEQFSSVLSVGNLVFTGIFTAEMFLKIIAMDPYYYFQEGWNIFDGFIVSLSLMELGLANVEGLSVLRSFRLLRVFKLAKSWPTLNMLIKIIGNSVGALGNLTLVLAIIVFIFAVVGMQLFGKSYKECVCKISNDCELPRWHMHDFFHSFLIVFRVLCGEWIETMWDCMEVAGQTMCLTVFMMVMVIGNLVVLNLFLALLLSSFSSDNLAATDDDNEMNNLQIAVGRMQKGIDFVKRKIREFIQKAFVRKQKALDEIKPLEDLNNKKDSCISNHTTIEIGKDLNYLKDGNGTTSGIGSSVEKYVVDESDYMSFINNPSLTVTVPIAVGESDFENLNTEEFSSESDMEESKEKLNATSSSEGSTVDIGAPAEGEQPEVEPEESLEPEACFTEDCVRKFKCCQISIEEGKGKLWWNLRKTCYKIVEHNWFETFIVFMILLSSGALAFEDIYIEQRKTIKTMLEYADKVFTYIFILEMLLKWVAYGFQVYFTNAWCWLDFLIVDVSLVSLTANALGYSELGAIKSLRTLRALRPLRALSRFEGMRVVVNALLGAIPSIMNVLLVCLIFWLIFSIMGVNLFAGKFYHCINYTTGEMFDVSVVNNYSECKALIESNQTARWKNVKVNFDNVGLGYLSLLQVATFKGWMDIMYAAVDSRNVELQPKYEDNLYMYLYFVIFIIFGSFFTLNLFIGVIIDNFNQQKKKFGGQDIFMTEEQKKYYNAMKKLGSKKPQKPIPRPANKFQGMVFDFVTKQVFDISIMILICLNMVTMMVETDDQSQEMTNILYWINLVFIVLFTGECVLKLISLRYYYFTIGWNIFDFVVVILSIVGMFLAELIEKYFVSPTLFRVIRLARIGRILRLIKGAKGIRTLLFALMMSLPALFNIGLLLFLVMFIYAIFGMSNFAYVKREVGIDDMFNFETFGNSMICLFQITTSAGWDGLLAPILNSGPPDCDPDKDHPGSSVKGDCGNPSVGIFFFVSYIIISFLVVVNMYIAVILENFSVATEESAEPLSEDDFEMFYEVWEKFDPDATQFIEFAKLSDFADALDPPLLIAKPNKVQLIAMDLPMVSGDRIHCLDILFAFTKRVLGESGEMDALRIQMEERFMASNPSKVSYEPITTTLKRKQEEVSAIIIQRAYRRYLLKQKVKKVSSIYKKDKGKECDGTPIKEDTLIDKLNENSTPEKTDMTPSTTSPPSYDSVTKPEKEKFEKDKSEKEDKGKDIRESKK

## CCCCNS(=O)(=O)c1ccc(OC)c(-c2nnc3c4ccccc4c(C)nn23)c1 [Lu AE98134]
[1]
  concentration from which the total area under the curve for the duration of the depolarizing pulse is increased: ≥ 1 µM
[2]
  selectivity against NaV1.5: low selectivity
[3]
  selectivity against NaV1.2: moderate selectivity

## CC(C)c1ccc(-c2nnc(-c3c(-c4ccccc4)ccnc3N3CC[C@H](F)C3)o2)cc1 [Example 30, (S)-2-(2-(3-fluoropyrrolidin-1-yl)-4-phenylpyridin-3-yl)-5-(4-isopropylphenyl)-1,3,4-oxadiazole]
[4]
  EC50: 1 to 10 µM
  Empirical Emax: + (+ indicates a value less than 2.0 μM)

## FC1(F)CCCN(c2nccc(-c3ccccc3)c2-c2nc3c([nH]2)COCC3)C1 [Example 49, 2-(2-(3,3-difluoropiperidin-1-yl)-4-phenylpyridin-3-yl)-3,4,6,7-tetrahydropyrano[3,4-d]imidazole]
[4]
  EC50: 10 to 50 µM
  Empirical Emax: ++ (++ indicates a value from 2.0 up to 5.0 μM)

## Fc1ccccc1-c1ccnc(N2CCC(F)(F)C2)c1-c1nc2ccncc2[nH]1 [Example 78, 2-[2-(3,3-difluoropyrrolidin-1-yl)-4-(2-fluorophenyl)-3-pyridyl]-1H-imidazo[4,5-c]pyridine]
[4]
  EC50: < 1 µM
  Empirical Emax: ++++ (++++ indicates a value greater than 7.5)

## FC1(F)C2CN(c3nccc(-c4ccccc4)c3-c3nc4c([nH]3)COCC4)CC21 (stereo not shown) [Example 45, 2-(2-(6,6-difluoro-3-azabicyclo[3.1.0]hexan-3-yl)-4-phenylpyridin-3-yl)-3,4,6,7-tetrahydropyrano[3,4-d]imidazole]
[4]
  EC50: < 1 µM
  Empirical Emax: +++ (+++ indicates a value from 5.0 up to 7.5 μM)

## Fc1ccccc1-c1ccnc(N2CC[C@H](F)C2)c1-c1nc2ccccc2[nH]1 [Example 18, (S)-2-(4-(2-fluorophenyl)-2-(3-fluoropyrrolidin-1-yl)pyridin-3-yl)-1H-benzo[d]imidazole]
[4]
  EC50: 1 to 10 µM
  Empirical Emax: ++++ (++++ indicates a value greater than 7.5)

## Fc1cccnc1-c1ccnc(N2CCCC2)c1-c1nc2ccccc2[nH]1 [Example 15, 2-(3-fluoro-2′-(pyrrolidin-1-yl)-[2,4′-bipyridin]-3′-yl)-1H-benzo[d]imidazole]
[4]
  EC50: 10 to 50 µM
  Empirical Emax: ++++ (++++ indicates a value greater than 7.5)

## CC1(C)Cc2nc(-c3c(-c4cc(F)ccc4F)ccnc3N3CCC(F)(F)C3)[nH]c2CO1 [Example 57, 2-(4-(2,5-difluorophenyl)-2-(3,3-difluoropyrrolidin-1-yl)pyridin-3-yl)-6,6-dimethyl-3,4,6,7-tetrahydropyrano[3,4-d]imidazole]
[4]
  EC50: < 1 µM
  Empirical Emax: ++++ (++++ indicates a value greater than 7.5)

## CC(C)CCc1nnc(-c2c(-c3ccccc3O)ccnc2N2CC[C@H](F)C2)o1 [Example 13, (S)-2-(2-(3-fluoropyrrolidin-1-yl)-3-(5-isopentyl-1,3,4-oxadiazol-2-yl)pyridin-4-yl)phenol]
[4]
  EC50: ≥ 50 µM
  Empirical Emax: + (+ indicates a value less than 2.0 μM)

Source: patent US12054486B2, “Pyridine derivatives and their use as sodium channel activators” (Xenon Pharmaceuticals Inc., priority 2021, dated 2024)
